From paper PMC7332792 (Acta Pharmaceutica Sinica. B, 2020)
Bridge positions count the residues as written; N and C are the ends. Ends that are not written are not given here.

Legend:
[1] = target: T1, human LAG-3 protein (human, UniProt P18627, labeled with Red-NHS647 dye (in the MST assay)); test: MST
T1 sequence: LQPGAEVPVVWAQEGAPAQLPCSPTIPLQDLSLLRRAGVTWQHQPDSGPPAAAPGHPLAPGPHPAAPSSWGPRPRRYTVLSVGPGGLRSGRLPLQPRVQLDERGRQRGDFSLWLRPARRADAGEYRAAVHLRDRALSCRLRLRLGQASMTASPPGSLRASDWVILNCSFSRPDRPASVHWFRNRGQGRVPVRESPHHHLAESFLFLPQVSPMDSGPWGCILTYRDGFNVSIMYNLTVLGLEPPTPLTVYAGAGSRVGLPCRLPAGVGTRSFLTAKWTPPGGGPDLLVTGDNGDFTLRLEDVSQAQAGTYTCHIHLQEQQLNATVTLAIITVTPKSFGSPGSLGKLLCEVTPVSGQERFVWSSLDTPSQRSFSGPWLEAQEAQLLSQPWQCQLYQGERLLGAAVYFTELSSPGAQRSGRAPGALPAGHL

CSCC[C@@H]1NC(=O)[C@@H]2CCCN2C(=O)[C@H](C(C)C)NC(=O)[C@@H](N)CSSC[C@@H](C(=O)O)NC(=O)[C@H](C)NC(=O)[C@H](CCCNC(=N)N)NC(=O)[C@H](Cc2ccc(O)cc2)NC(=O)[C@H]([C@@H](C)O)NC1=O [C25]
immune response (immunogenicity) in mice (mice with or without CT26 xenograft): did not cause significant immune response in mice
IgG levels in the blood (naïve mice and CT26 tumor bearing mice after 14 days of C25 treatment, ELISA, versus control, n = 5): not significantly different from those in the control group

B1: cyclic peptide C19 (peptide)
peptide: CNWMINKEC
modifications: disulfide 1-9
Kd [1]: 5.05 µM

B2: cyclic peptide C17 (peptide)
peptide: CNMHTPMVC
modifications: disulfide 1-9
Kd [1]: 1.83 µM
